Assay results: US6737383B1, “Herbicidal oxadiazolidines” (priority 1999, dated 2004)

Experiments:
surinam grass = experiment: Test D surinam grass; assay type: in vivo, Brachiaria decumbens
In short: (§1)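 Greenhouse pots, sandy loam, single species per pot. Preemergence tests: soil-surface application ≤1 day after planting. Compound formulated in non-phytotoxic solvent with surfactant. Visual rating 14–21 DAT, scale 0–100.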

pitted morningglory = experiment: Test D pitted morningglory; assay type: in vivo, Ipomoea lacunosa; settings: Preemergence, 0 to 100 scale
In short: as §1

common ragweed = experiment: Test D common ragweed; assay type: in vivo, Ambrosia elatior; settings: Preemergence, 0 to 100 scale
In short: as §1

common pursiane = experiment: Test D common purslane; assay type: in vivo, Portulaca oleracea; settings: Preemergence, 0 to 100 scale
Description: (§2) Seeds, tubers, or plant parts of Alexandergrass (Brachiaria plantaginea), bermuda-grass (Cynodon dactylon), common pursiane (Portulaca oleracea), common ragweed (Ambrosia elatior), common groundsel (Senecio vulgaris), dallisgrass (Paspalum dilatatum), goosegrass (Eleusine indica), guineagrass (Panicum maximum), itchgrass (Rottboellia exaltata), Johnson grass (Sorghum halepense), large crabgrass (Digitaria sanguinalis), pitted morningglory (Ipomoea lacunosa), purple nutsedge (Cyperus rotundus), sandbur (Cenchrus echinatus), sourgrass (Trichachne insularis), Spanishneedles (Bidens bipinnata), surinam grass (Brachiaria decumbens) and tall mallow (Malva sylvestris) were planted into greenhouse pots of flats containing greenhouse planting medium. Plant species were grown in separate pots or individual compartments. Preemergence applications were made within one day of planting the seed or plant part.
(§3) Test chemicals were formulated in a non-phytotoxic solvent mixture which included a surfactant and applied preemergence to the surface of the pot containing seeds in a sandy loam soil. Untreated control pots and treated pots were placed in the greenhouse for growth and visually evaluated for injury 14 to 21 days after herbicide application. Plant response ratings, summarized in Table C, are based on a 0 to 100 scale where 0 is no injury and 100 is complete control. A dash (−) response means no test result.

large crabgrass = experiment: Test D large crabgrass; assay type: in vivo, Digitaria sanguinalis; settings: Preemergence, 0 to 100 scale
In short: as §1

sandbur = experiment: Test D sandbur; assay type: in vivo, Cenchrus echinatus; settings: Preemergence, 0 to 100 scale
Description: as §2, §3

Johnson grass = experiment: Test D Johnson grass; assay type: in vivo, Sorghum halepense; settings: Preemergence, 0 to 100 scale
In short: as §1

tall mallow = experiment: Test D tall mallow; assay type: in vivo, Malva sylvestris; settings: Preemergence, 0 to 100 scale
In short: as §1

common groundsel = experiment: Test D common groundsel; assay type: in vivo, Senecio vulgaris; settings: Preemergence, 0 to 100 scale
In short: as §1

purple nutsedge = experiment: Test D purple nutsedge; assay type: in vivo, Cyperus rotundus; settings: Preemergence, 0 to 100 scale
Description: as §2, §3

goosegrass = experiment: Test D goosegrass; assay type: in vivo, Eleusine indica; settings: Preemergence, 0 to 100 scale
Description: as §2, §3

Spanishneedles = experiment: Test D Spanishneedles; assay type: in vivo, Bidens bipinnata; settings: Preemergence, 0 to 100 scale
In short: as §1

guineagrass = experiment: Test D guineagrass; assay type: in vivo, Panicum maximum; settings: Preemergence, 0 to 100 scale
Description: as §2, §3

itchgrass = experiment: Test D itchgrass; assay type: in vivo, Rottboellia exaltata; settings: Preemergence, 0 to 100 scale
In short: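 Scoring used a 0–100 visual injury scale, with 0 meaning no effect and 100 complete control, assessed 14–21 days after application alongside untreated pots. Preemergence treatments went onto sandy loam surfaces of separately potted seeds within a day of sowing.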

Alexandergrass = experiment: Test D Alexandergrass; assay type: in vivo, Brachiaria plantaginea; settings: Preemergence, 0 to 100 scale
Description: as §2, §3

[1] = Rate 16 g/ha, 0 no injury, 100 complete control
[2] = Rate 32 g/ha, 0 no injury, 100 complete control
[3] = Rate 64 g/ha, 0 no injury, 100 complete control
[4] = Rate 125 g/ha, 0 no injury, 100 complete control

CC(C)N(C(=O)n1oc(=O)n(Cc2ccccc2)c1=O)c1ccc(F)cc1 [Compound 78]
Plant response rating, Surinam grass (surinam grass; Rate 16 g/ha; Preemergence; 0 to 100 scale, 0 no injury, 100 complete control): 0
Plant response rating, Surinam grass (surinam grass; Rate 32 g/ha; Preemergence; 0 to 100 scale, 0 no injury, 100 complete control): 0
Surinam grass plant response rating (surinam grass; Rate 64 g/ha, Preemergence; 0 to 100 scale, 0 no injury, 100 complete control): 20
Surinam grass plant response rating (surinam grass; Rate 125 g/ha, Preemergence; 0 to 100 scale, 0 no injury, 100 complete control): 30
Plant response rating, Surinam grass (surinam grass; Rate 250 g/ha; Preemergence; 0 to 100 scale): 85
Plant response rating, Surinam grass (surinam grass; Rate 500 g/ha, Preemergence; 0 to 100 scale): 96
Plant response rating, Surinam grass (surinam grass; Rate 500 g/ha; Preemergence; 0 to 100 scale): 98
Plant response rating, P. morninglory (pitted morningglory; [1]): 0
Plant response rating, P. morninglory (pitted morningglory; [2]): 0
Plant response rating, P. morninglory (pitted morningglory; [3]): 0
Plant response rating, P. morninglory (pitted morningglory; [4]): 0
Plant response rating, P. morninglory (pitted morningglory; Rate 250 g/ha): 0
Plant response rating, P. morninglory (pitted morningglory; Rate 500 g/ha): 0
Plant response rating, C. ragweed (common ragweed; [1]): 0
Plant response rating, C. ragweed (common ragweed; [2]): 0
Plant response rating, C. ragweed (common ragweed; [3]): 0
Plant response rating, C. ragweed (common ragweed; [4]): 0
Plant response rating, C. ragweed (common ragweed; Rate 250 g/ha): 0
Plant response rating, C. ragweed (common ragweed; Rate 500 g/ha): 0
Plant response rating, C. purslane (common pursiane; [1]): 0
Plant response rating, C. purslane (common pursiane; [2]): 0
Plant response rating, C. purslane (common pursiane; [3]): 0
Plant response rating, C. purslane (common pursiane; [4]): 0
Plant response rating, C. purslane (common pursiane; Rate 250 g/ha): 0
Plant response rating, C. purslane (common pursiane; Rate 500 g/ha): 0
Plant response rating, Large crabgrass (large crabgrass; [1]): 0
Plant response rating, Large crabgrass (large crabgrass; [2]): 40
Plant response rating, Large crabgrass (large crabgrass; [3]): 98
Plant response rating, Large crabgrass (large crabgrass; [4]): 100
Plant response rating, Large crabgrass (large crabgrass; Rate 250 g/ha): 100
Plant response rating, Large crabgrass (large crabgrass; Rate 500 g/ha): 100
Plant response rating, Sandbur (sandbur; [1]): 0
Plant response rating, Sandbur (sandbur; [2]): 0
Sandbur plant response rating (sandbur; [3]): 0
Sandbur plant response rating (sandbur; [4]): 0
Plant response rating, Sandbur (sandbur; Rate 250 g/ha): 75
Plant response rating, Sandbur (sandbur; Rate 500 g/ha): 80
Plant response rating, Johnsongrass (Johnson grass; [1]): 0
Plant response rating, Johnsongrass (Johnson grass; [2]): 0
Plant response rating, Johnsongrass (Johnson grass; [3]): 0
Plant response rating, Johnsongrass (Johnson grass; [4]): 0
Plant response rating, Johnsongrass (Johnson grass; Rate 250 g/ha): 20
Plant response rating, Johnsongrass (Johnson grass; Rate 500 g/ha): 20
Plant response rating, Tall Mallow (tall mallow; [1]): 0
Plant response rating, Tall Mallow (tall mallow; [2]): 0
Tall Mallow plant response rating (tall mallow; [3]): 0
Tall Mallow plant response rating (tall mallow; [4]): 0
Plant response rating, Tall Mallow (tall mallow; Rate 250 g/ha): 0
Plant response rating, Tall Mallow (tall mallow; Rate 500 g/ha): 0
Plant response rating, Com. groundsel (common groundsel; [1]): 0
Plant response rating, Com. groundsel (common groundsel; [2]): 0
Plant response rating, Com. groundsel (common groundsel; [3]): 0
Plant response rating, Com. groundsel (common groundsel; [4]): 0
Plant response rating, Com. groundsel (common groundsel; Rate 250 g/ha): 0
Plant response rating, Com. groundsel (common groundsel; Rate 500 g/ha): 0
Plant response rating, Purple nutsedge (purple nutsedge; [1]): 0
Plant response rating, Purple nutsedge (purple nutsedge; [2]): 0
Purple nutsedge plant response rating (purple nutsedge; [3]): 0
Purple nutsedge plant response rating (purple nutsedge; [4]): 0
Plant response rating, Purple nutsedge (purple nutsedge; Rate 250 g/ha): 0
Plant response rating, Purple nutsedge (purple nutsedge; Rate 500 g/ha): 0
Plant response rating, Goosegrass (goosegrass; [1]): 10
Plant response rating, Goosegrass (goosegrass; [2]): 10
Plant response rating, Goosegrass (goosegrass; [3]): 85
Plant response rating, Goosegrass (goosegrass; [4]): 98
Plant response rating, Goosegrass (goosegrass; Rate 250 g/ha): 98
Plant response rating, Goosegrass (goosegrass; Rate 500 g/ha): 100
Plant response rating, Spanishneedles (Spanishneedles; [1]): 0
Plant response rating, Spanishneedles (Spanishneedles; [2]): 0
Spanishneedles plant response rating (Spanishneedles; [3]): 0
Spanishneedles plant response rating (Spanishneedles; [4]): 0
Plant response rating, Spanishneedles (Spanishneedles; Rate 500 g/ha): 0
Plant response rating, Guineagrass (guineagrass; [1]): 20
Plant response rating, Guineagrass (guineagrass; [2]): 20
Plant response rating, Guineagrass (guineagrass; [3]): 65
Plant response rating, Guineagrass (guineagrass; [4]): 85
Plant response rating, Guineagrass (guineagrass; Rate 250 g/ha): 100
Plant response rating, Guineagrass (guineagrass; Rate 500 g/ha): 100
Plant response rating, Itchgrass (itchgrass; [1]): 0
Plant response rating, Itchgrass (itchgrass; [2]): 0
Plant response rating, Itchgrass (itchgrass; [3]): 0
Plant response rating, Itchgrass (itchgrass; [4]): 0
Plant response rating, Itchgrass (itchgrass; Rate 250 g/ha): 10
Plant response rating, Itchgrass (itchgrass; Rate 500 g/ha): 20
Plant response rating, Alexandergrass (Alexandergrass; [1]): 0
Plant response rating, Alexandergrass (Alexandergrass; [2]): 0
Plant response rating, Alexandergrass (Alexandergrass; [3]): 30
Plant response rating, Alexandergrass (Alexandergrass; [4]): 75
Plant response rating, Alexandergrass (Alexandergrass; Rate 250 g/ha): 75
Plant response rating, Alexandergrass (Alexandergrass; Rate 500 g/ha): 100
